Experimental data taken from publication PMC10269622, “Blapstin, a Diapause-Specific Peptide-Like Peptide from the Chinese Medicinal Beetle Blaps rhynchopetera, Has Antifungal Function” (Microbiology Spectrum, 2023).
Bridge positions count the residues as written; N and C are the ends. Ends that are not written are not given here.

Columns and labels:
RAW 264.7 cells = assay: Cytotoxicity, CCK-8 assay; format: cell-based, mouse; conditions: from 7.03 μM to 225 μM, 24 h, CCK-8, absorbance at 450 nm; three independent experiments
Experimental: Cytotoxicity was determined using mouse RAW 264.7 cells (10^6 cells/mL). These cells were cultured in sterile 96-well microplates with RPMI 1640 medium (Corning, USA) in a 5% CO2 incubator at 37°C. The medium was supplemented with 10% fetal calf serum (FCS) and penicillin-streptomycin (100 U/mL each). Cytotoxicity was assessed using the cell counting kit-8 (CCK-8) assay (MCE, USA). After 24 h of incubation with serial dilutions of blapstin, 10 μL of CCK-8 solution was added to each well. The plate was further incubated for 1 to 4 h under standard cell growth conditions, and the residual absorbance was read at 450 nm. The experiments were repeated three times according to the manufacturer’s instructions.

C. albicans ATCC 10231 = assay: Cell membrane potential changes, DiSC3(5) staining; format: cell-based, Candida albicans; conditions: 16× MIC, 8× MIC and 1× MIC; 0.5 μM DiSC3(5), 100 mM KCl, measured for 60 min; dose-dependent; weaker than 10 μM valinomycin
Experimental: DiSC3(5) is a fluorescent probe often used as a tracer dye to assess the mitochondrial membrane potential ([71]); therefore, we assessed the effects of blapstin on the cell membrane potential changes of C. albicans ATCC 10231 using DiSC3(5) staining. C. albicans ATCC 10231 was cultured in YM medium to logarithmic stage in a constant-temperature shaking machine at 37°C, centrifuged at 1,000 × g for 5 min to remove the supernatant, and washed with normal saline three times, and then normal saline containing 100 mM potassium chloride (KCl) was used to dilute the bacterial solution to an optical density at 600 nm (OD600) of 0.1. DiSC3(5) dye was dissolved by dimethyl sulfoxide (DMSO) into the mother solution and normal saline diluted with 15% DMSO so that the final concentration of DiSC3(5) added to the bacterial solution was 0.5 μM. The mixture was added to a special fluorescent 96-well plate with 190 μL in each well. The excitation/emission wavelengths were set at 622/670 nm, measurement was carried out with a multifunctional fluorescent enzyme labeling instrument (SynergyH1; Biotek, USA) until the value of the enzyme marker was stable, and then measurement was continued for 20 min. The final concentrations were 16× MIC, 8× MIC, and 1× MIC when 10 μL blapstin was added to the experimental group. […]

[1] = system: C. albicans ATCC 10231 biofilm; assay: Inhibition of biofilm formation (crystal violet); format: cell-based, Candida albicans; conditions: 0.5×, 1×, 2×, 4× and 8× MIC, 24 h, 37°C, absorbance at 600 nm
Experimental: Biofilms are microbial aggregates produced by the extracellular matrix that are attached to abiotic and biotic surfaces ([57]). A biofilm inhibition assay was performed as previously described, with minor modifications, to determine the ability of blapstin to inhibit biofilm formation ([69], [70]). In brief, the concentration of C. albicans ATCC 10231 was adjusted to 1 × 10^6 CFU/mL, and 200 μL per well was added to sterile 96-well plates mixed with different concentrations of blapstin (0.5×, 1×, 2×, 4×, and 8× MIC). After incubation for 24 h at 37°C, these wells were washed three times with PBS to remove unadhered fungal cells, followed by fixation with 99% methanol for 15 min. Next, methanol was removed, and the wells were allowed to dry. Then, 100 μL of 0.1% crystal violet was added to each well for 10 min, and the plate was washed three times. Finally, 100 μL of 95% ethanol was added, and the absorbance at 600 nm was measured to assess biofilm formation. Fluconazole at 10 μM and clotrimazole at 10 μΜ were used as a positive control, and sterile 0.9% NaCl was used as a negative control.

[2] = system: C. albicans ATCC 10231 biofilm; assay: CLSM live/dead (FDA/PI) staining of biofilm; format: cell-based, Candida albicans; conditions: 8× MIC, among 0.5× to 8× MIC; 48 h, 37°C
Experimental: Blapstin at various concentrations (500 μL) was added to 500 μL of the prepared fungal suspension of C. albicans ATCC 10231 (2 × 10^5 CFU/mL) in a sterile 24-well plate to ensure that the final concentration of blapstin ranged from 0.5× to 8× MIC; the plate was incubated for 48 h at 37°C, followed by washing with PBS two to three times to remove unadhered fungal cells. Then, 10 μg/mL of FDA (Solarbio, Beijing, China) and 5 μg/mL of PI (Solarbio, Beijing, China) were added for costaining in the dark for 30 min and washed with PBS twice, as described previously ([68]). Subsequently, the plates were observed using a CLSM (FV 1000; Olympus, Germany). The FDA and PI were excited at 488 nm and 555 nm, respectively, for imaging. Cell viability was assessed based on fluorescence staining; living cells hydrolyze FDA, resulting in the accumulation of green fluorescence, whereas dead cells are stained red by PI. Fluconazole at 10 μΜ and clotrimazole at 10 μΜ were used as a positive control, and sterile 0.9% NaCl was used as a negative control. Green or red fluorescence intensity was calculated using Image J.

## VRVGPCDQVCSRTNPEKDECCRAHGHSGHSSCYGGRMNCYG (disulfide 6-21, 10-32, 20-39 (inferred)) [Blapstin]
RAW 264.7 cells
  Cytotoxicity in RAW 264.7 cells: no obvious cytotoxicity
C. albicans ATCC 10231
  Cellular DiSC3(5) fluorescence (membrane potential) compared with negative control: increased significantly
[1]
  Biofilm formation by C. albicans: dose-dependently inhibited
[2]
  Effect on biofilm activity (FDA-labeled live / PI-labeled dead cells, CLSM): greatest effect
